T1: Amuc_1686_short (Akkermansia muciniphila, UniProt B2UM60)
T1 construct: gene Amuc_1686; signal peptide removed, last 107 amino acids (C-terminal discoidin domain) deleted; N-terminal Strep-tag (pASK-IBA5), E. coli BL21(DE3); primers start at codons AAPMPF and end in DNGPH-stop
T1 sequence (B2UM60 18-673): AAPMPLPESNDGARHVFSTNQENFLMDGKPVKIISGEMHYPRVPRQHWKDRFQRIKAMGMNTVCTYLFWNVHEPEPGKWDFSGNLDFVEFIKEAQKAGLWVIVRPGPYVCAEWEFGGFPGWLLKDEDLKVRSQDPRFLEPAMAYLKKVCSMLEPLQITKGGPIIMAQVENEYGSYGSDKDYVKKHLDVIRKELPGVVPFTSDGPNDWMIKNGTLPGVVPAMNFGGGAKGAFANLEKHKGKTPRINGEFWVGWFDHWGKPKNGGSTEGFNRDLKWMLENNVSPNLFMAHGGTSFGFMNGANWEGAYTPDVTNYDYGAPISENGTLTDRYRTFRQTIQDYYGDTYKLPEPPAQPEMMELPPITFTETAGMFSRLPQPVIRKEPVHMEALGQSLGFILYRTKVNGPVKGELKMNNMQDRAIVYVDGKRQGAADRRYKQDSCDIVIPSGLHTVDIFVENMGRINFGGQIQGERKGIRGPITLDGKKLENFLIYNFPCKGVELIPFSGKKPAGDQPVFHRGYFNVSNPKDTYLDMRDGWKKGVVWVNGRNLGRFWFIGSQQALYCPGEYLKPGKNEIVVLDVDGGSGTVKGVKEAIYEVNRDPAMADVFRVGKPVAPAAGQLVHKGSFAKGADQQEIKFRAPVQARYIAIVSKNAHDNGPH

T2: Amuc_1686 (Akkermansia muciniphila, UniProt B2UM60)
T2 construct: GH35 beta-galactosidase with C-terminal truncated discoidin (F5/8 type C) domain; signal peptide removed (predicted cleavage between 17 and 18), N-terminal Strep-tag kept (pASK-IBA5), E. coli BL21(DE3); 87 kDa tagged (86 kDa encoded); monomer; primers start at codons AAPMPF and end in FKPAK-stop
T2 sequence (B2UM60 18-780): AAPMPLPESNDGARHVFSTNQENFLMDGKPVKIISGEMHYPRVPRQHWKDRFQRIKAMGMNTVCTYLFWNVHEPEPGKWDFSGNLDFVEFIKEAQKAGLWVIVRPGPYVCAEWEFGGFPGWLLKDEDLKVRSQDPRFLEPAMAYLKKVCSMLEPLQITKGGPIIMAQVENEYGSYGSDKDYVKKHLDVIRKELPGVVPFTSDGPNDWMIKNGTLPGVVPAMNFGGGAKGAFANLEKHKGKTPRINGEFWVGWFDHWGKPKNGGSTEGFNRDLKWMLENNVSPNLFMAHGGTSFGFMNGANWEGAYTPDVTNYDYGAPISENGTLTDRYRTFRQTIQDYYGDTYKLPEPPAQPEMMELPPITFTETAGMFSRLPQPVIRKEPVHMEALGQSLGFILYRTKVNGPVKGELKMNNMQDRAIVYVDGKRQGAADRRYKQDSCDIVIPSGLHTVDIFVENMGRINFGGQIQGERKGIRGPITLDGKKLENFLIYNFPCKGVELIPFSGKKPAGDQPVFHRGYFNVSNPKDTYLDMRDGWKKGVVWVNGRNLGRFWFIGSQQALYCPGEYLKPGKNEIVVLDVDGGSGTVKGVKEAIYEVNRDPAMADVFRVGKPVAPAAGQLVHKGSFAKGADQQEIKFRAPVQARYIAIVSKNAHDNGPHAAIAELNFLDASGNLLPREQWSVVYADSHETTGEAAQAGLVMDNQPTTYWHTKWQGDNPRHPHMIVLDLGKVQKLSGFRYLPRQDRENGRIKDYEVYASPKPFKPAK

B1: Amuc_1686 (Akkermansia muciniphila ATCC BAA-835) (protein)
chain: T2 sequence (B2UM60 18-780)

Assays:
[1] = molecular target: T1, Amuc_1686_short; test: photometric 4-nitrophenol release; assay type: biochemical; conditions: 5 mM substrate; 50 mM combined buffer pH 7.5, 37 °C
[2] = molecular target: T2, Amuc_1686; test: photometric 4-nitrophenol release; assay type: biochemical; conditions: 5 mM 4-nitrophenyl beta-D-galactopyranoside; 50 mM combined buffer pH 7.5, 37 °C; lipid added in methanol; non-competitive; acyl chains not given
[3] = substrate: O=[N+]([O-])c1ccc(O[C@@H]2O[C@H](CO)[C@H](O)[C@H](O)[C@H]2O)cc1; test: purified protein; conditions: 50 mM combined buffer pH 7.5, 65 °C

Molecule | IC50 [2] [µM] | other results
O=[N+]([O-])c1ccc(O[C@@H]2O[C@H](CO)[C@H](O)[C@H](O)[C@H]2O)cc1 [para‐nitrophenyl‐β‐D‐galactopyranoside] | – | photometric 4-nitrophenol release [1]: the shortened variant exhibited a slightly decreased enzymatic activity
lysophosphatidic acid [LPA] | 13.6 ± 10.6 | –
phosphatidic acid [PA] | 4.3 ± 0.2 | –
phosphatidylglycerol [PG] | 1 ± 0.1 | –
phosphatidylserine [PS] | 29.3 ± 1.5 | –
B1 | – | Km [3]: 0.5 ± 0.3 mM; kcat [3]: 530.3 ± 87.1 s⁻¹
